The IC50 is the concentration at which inhibition is half-maximal. The inhibition is the change of the read-out against control, counted positive when it falls.

Data on two compounds can be found in ChEMBL document CHEMBL4130413, “1-Aryl-1H- and 2-aryl-2H-1,2,3-triazole derivatives blockade P2X7 receptor in vitro and inflammatory response in vivo” (Eur J Med Chem, 2017).

Series [1] concerns Mus musculus. In words: Anti-inflammatory activity in Swiss mouse assessed as inhibition of LPS-induced pleural accumulation in neutrophils cells at 100 mg/kg, ip pretreated for 1 hr followed by LPS stimulation and measured after 24 hrs by May-Grunwald-Giemsa staining-based Neubauer chamber based optical microscopy. It counts as functional, organism-based.
In series [2] the test system is Mus musculus. In words: Anti-inflammatory activity in Swiss mouse assessed as inhibition of LPS-induced pleural accumulation in eosiniphils at 100 mg/kg, ip pretreated for 1 hr followed by LPS stimulation and measured after 24 hrs by May-Grunwald-Giemsa staining-based Neubauer chamber based optical microscopy. It is filed as functional, organism-based.
Series [3] has as its system Mus musculus. In words: Anti-inflammatory activity in Swiss mouse assessed as inhibition of LPS-induced protein extravasation in thoracic cavity at 100 mg/kg, ip pretreated for 1 hr followed by LPS stimulation and measured after 24 hrs. It is filed as functional, organism-based.
In another series the test system is Peritoneal macrophage. The series is described as follows: Toxicity in Swiss mouse peritoneal macrophages assessed as LDH release at 10 uM after 60 mins relative to 0.05% Triton X-100. It is filed as cell-based. Particulars: 1 h. A general note: Release of lactate dehydrogenase indicates damage to the cell membrane.
Series [4] deals with T1, P2X purinoceptor 7 (Mus musculus, UniProt Q9Z1M0).
T1 sequence (Q9Z1M0 whole entry): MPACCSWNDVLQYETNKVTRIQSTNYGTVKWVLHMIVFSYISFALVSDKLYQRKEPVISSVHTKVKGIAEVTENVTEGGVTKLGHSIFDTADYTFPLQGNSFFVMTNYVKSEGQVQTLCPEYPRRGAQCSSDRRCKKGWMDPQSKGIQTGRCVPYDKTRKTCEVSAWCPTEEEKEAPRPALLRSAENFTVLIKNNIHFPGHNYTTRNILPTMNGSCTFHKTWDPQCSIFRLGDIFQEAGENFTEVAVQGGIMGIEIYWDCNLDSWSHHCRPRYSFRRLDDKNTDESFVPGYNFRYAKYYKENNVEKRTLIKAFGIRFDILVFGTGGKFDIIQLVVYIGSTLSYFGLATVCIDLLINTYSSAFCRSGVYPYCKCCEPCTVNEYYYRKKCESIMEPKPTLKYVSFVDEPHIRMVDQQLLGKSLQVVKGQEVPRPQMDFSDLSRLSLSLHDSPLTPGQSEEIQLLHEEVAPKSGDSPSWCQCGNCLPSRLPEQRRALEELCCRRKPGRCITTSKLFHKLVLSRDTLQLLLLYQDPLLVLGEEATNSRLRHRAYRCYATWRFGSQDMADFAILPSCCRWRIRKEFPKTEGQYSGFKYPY
The series is described as follows: Antagonist activity at P2X7 receptor in Swiss mouse peritoneal macrophages assessed as inhibition of ATP-induced current at holding potential of -60 mV preincubated for 5 mins followed by ATP addition measured after 5 mins by Whole cell patch-clamp analysis. On the technique in general: The patch-clamp technique gives a direct electrical read-out from membranes.

Series [5] addresses T2, P2X purinoceptor 7 (Homo sapiens) (UniProt Q99572).
T2 sequence (whole entry): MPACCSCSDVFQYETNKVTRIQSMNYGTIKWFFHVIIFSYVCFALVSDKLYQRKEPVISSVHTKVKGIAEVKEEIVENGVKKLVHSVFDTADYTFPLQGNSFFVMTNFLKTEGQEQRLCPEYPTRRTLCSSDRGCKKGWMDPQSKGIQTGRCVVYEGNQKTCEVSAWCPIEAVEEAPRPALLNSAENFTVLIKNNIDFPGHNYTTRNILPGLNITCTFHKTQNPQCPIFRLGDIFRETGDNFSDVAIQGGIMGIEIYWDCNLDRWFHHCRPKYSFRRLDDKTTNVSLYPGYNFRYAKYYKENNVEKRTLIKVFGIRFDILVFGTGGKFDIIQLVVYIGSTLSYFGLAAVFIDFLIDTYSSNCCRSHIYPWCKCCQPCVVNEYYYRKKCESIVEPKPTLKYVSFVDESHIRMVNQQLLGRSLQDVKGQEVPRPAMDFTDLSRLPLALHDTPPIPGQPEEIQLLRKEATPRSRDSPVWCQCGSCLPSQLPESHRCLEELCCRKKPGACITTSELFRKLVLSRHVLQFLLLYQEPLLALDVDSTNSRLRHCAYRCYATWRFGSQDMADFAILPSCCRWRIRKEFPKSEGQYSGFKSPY
In words: Antagonist activity at human P2X7 receptor expressed in HEK293 cells assessed as inhibition of ATP-induced ethidium iodide uptake at 10 uM preincubated for 10 mins followed by ATP addition measured after 20 mins by FLIPR assay relative to 1 mM ATP. It is filed as cell-based.

The subject of series [6] is Mus musculus. The series is described as follows: Anti-inflammatory activity in po dosed Swiss Webster mouse assessed as inhibition of carrageenan-induced paw edema pretreated for 60 mins followed by carrageenan administration and measured after 60 mins. It is filed as functional. Background: In the carrageenan paw model, swelling and tenderness develop within hours.

Series [7] concerns Mus musculus. In words: Anti-inflammatory activity in Swiss mouse assessed as inhibition of LPS-induced pleural accumulation in total leucocytes at 1 to 100 ng/kg, ip pretreated for 1 hr followed by LPS stimulation and measured after 24 hrs by May-Grunwald-Giemsa staining-based Neubauer chamber based optical microscopy. It is filed as functional, organism-based.
Series [8] has as its target T3, P2X purinoceptor 7 (Homo sapiens, UniProt Q99572).
T3 sequence (Q99572 whole entry): T2 sequence (whole entry)
In words: (§1) Antagonist activity at P2X7 receptor in LPS/IFNc-differentiated human THP-1 cells assessed as inhibition of ATP-induced IL-1beta release preincubated for 30 mins followed by LPS stimulation for 4 hrs using cells treated with ATP for 30 mins by ELISA. It counts as cell-based.

Series [9] has as its target T2, P2X purinoceptor 7 (Homo sapiens). The series is described as §1. It is filed as cell-based.
Series [10] addresses T1, P2X purinoceptor 7. In words: Antagonist activity at P2X7 receptor in Swiss mouse peritoneal macrophages assessed as inhibition of BzATP-induced current at holding potential of -60 mV preincubated for 5 mins followed by BzATP addition measured after 5 mins by Whole cell patch-clamp analysis.
Series [11] in a line: Intrinsic clearance in human liver microsomes assessed per mg protein at 1 uM measured up to 45 mins. It counts as ADME, microsome. Particulars: read-out: CLH.
The subject of series [12] is Mus musculus. The series is described as follows: Anti-inflammatory activity in ip dosed Swiss Webster mouse assessed as inhibition of ATP-induced paw edema pretreated for 60 mins followed by ATP administration and measured after 30 mins. It is filed as functional.
Series [13] deals with T1, P2X purinoceptor 7. In words: (§2) Antagonist activity at P2X7 receptor in Swiss mouse peritoneal macrophages assessed as inhibition of ATP-induced propidium iodide uptake after 25 mins by flow cytometric analysis.
Series [14] has as its target T4, P2X purinoceptor 7 (Mus musculus) (UniProt Q9Z1M0).
T4 sequence (whole entry): T1 sequence (Q9Z1M0 whole entry)
Described as §2.

Series [15] addresses T1, P2X purinoceptor 7. The series is described as follows: Antagonist activity at P2X7 receptor in LPS/IFNc-differentiated Swiss mouse peritoneal macrophages assessed as inhibition of ATP-induced IL-1beta release preincubated for 30 mins followed by LPS stimulation for 4 hrs using cells treated with ATP for 30 mins by ELISA.
Series [16] has as its system Mus musculus. The series is described as follows: Anti-inflammatory activity in ip dosed Swiss Webster mouse assessed as inhibition of carrageenan-induced paw edema pretreated for 60 mins followed by carrageenan administration and measured after 30 mins. It counts as functional.
The nature of series [17]: Kinetic solubility in pH 4 citrate buffer at 1 to 250 uM after 2 hrs. Particulars: read-out: Kinetic_solubility. It is filed as physicochemical.
Series [18] relates to Mus musculus. In words: Anti-inflammatory activity in Swiss mouse assessed as inhibition of LPS-induced nitric oxide production in pleural washes at 1 to 100 ng/kg, ip pretreated for 1 hr followed by LPS stimulation and measured after 24 hrs by Lowry/Griess analysis. It counts as functional, organism-based.
For series [19], the system named is Mus musculus. The series is described as follows: Anti-inflammatory activity in Swiss mouse assessed as inhibition of LPS-induced pleural accumulation in eosinophils at 1 to 100 ng/kg, ip pretreated for 1 hr followed by LPS stimulation and measured after 24 hrs by May-Grunwald-Giemsa staining-based Neubauer chamber based optical microscopy. It is filed as functional, organism-based.

Active and inactive are the calls of the source. The rule behind the calls is not given here. Bounds are passed on as bounds.

For the compound `O=C(O)Cc1ccccc1Nc1c(Cl)cccc1Cl` [DICLOFENAC], the result in the series with Mus musculus [1], in the series on Mus musculus [2] and in the series with Mus musculus [3] was inactive.
Consider `CCOCc1cn(-c2ccc(Cl)cc2)nn1`, for which the Activity with Peritoneal macrophage was 8.33%; in series [9] it was “Dose-dependent effect”; in the series on Mus musculus [16] it was “Dose-dependent effect”. In addition, the IC50 on P2X purinoceptor 7 [4] was 69 nM; on P2X purinoceptor 7 [8], 67.5 nM; on P2X purinoceptor 7 [10], 41.1 nM; at P2X purinoceptor 7 [13], 83 nM; on P2X purinoceptor 7 [15], 91 nM. Further, the figures for the inhibition in series [5] and in series [14] were 96.9% and “Dose-dependent effect”, respectively. The ID50 with Mus musculus [6] amounted to 0.08049 µg/kg; in the series with Mus musculus [12] it was 0.07984 µg/kg; in the series with Mus musculus [16], 0.09435 µg/kg. The result in the series on Mus musculus [7] and with Mus musculus [18] was Active. Further, the microsomal CLint at 1 µM in series [11] is 30.2 µL/min/mg. For the same compound, the solubility kinetic at 2 h in series [17] was below 250 µM. Besides, in the series with Mus musculus [19], the outcome was inactive.
